Data as given in patent US9326513B2, “Fungicidal compositions” (Syngenta Participations AG, priority 2011, dated 2016).
Several values for one entry are separate records, joined by “and”; a condition that tells them apart may be missing. Equal values may be shown once.

Experiments:
Sphaerotheca fuliginea = Sphaerotheca fuliginea (powdery mildew) on cucumber, preventive treatment; assay type: in vivo; conditions: solo, 2 days preventive, 10 days after application
Source text: In the following Tables 'Activity (%)' means the assessed experimental activity (% disease control in this test when compared to untreated control leaf disks under the same conditions, which show extensive disease development) and “P” is the expected value calculated (expected) activity according to the COLBY formula (see above). The column headed 'S?' indicates whether or not synergy was observed, with 'y' meaning that synergy was observed. Sphaerotheca fuliqinea (Powdery Mildew) on Cucumber, Preventive Treatment […] Cucumber plants with unfolded cotyledons were sprayed with a roomsprayer and 40 ml/4 plants spray volume with the test compounds, either solo or in […] shown in the table below. 2 days after application the plants were infested with spores of Sphaerotheca fuliginea.

[1] = system: Puccinia recondita f. sp. tritici; assay: Puccinia recondita f. sp. tritici / wheat / leaf disc curative (brown rust); assay type: in vivo; conditions: foliar, compared to untreated control leaf disks, read-out: disease control
Experimental: Puccinia recondita f. sp. tritici/Wheat/Leaf Disc Curative (Brown Rust) Wheat leaf segments cv. Kanzler are placed on agar in multiwell plates (24-well format). The leaf segments are inoculated with a spore suspension of the fungus. Plates were stored in darkness at 19° C. and 75% rh. The formulated test compound diluted in water was applied 1 day after inoculation.

Septoria tritici [2] = assay: Septoria tritici on wheat, preventive treatment; assay type: in vivo; conditions: solo, wheat Riband, 1 day preventive, 18 days after application
[3] = system: Blumeria graminis f. sp. tritici (Erysiphe graminis f. sp. tritici); assay: Blumeria graminis f. sp. tritici / wheat / leaf disc preventative (powdery mildew on wheat); assay type: in vivo; conditions: foliar, compared to untreated control leaf disks, read-out: disease control
How it was run: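 Wheat leaf segments (cv. Kanzler) on agar were sprayed with formulated compound in water, inoculated with powdery mildew 1 day later, and kept at 20° C, 60% rh (24 h dark, then 12 h light/12 h dark). Percent disease control versus untreated scored 6-8 days after application; tested at 200 ppm.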

Septoria tritici [4] = assay: Septoria tritici (leaf blotch), YBG microtiter plate, photometric growth inhibition after 6 days; assay type: cell-based; conditions: Zymoseptoria tritici, 144 h, solo
Sclerotinia sclerotiorum = Sclerotinia sclerotiorum on oilseed rape, preventive treatment; assay type: in vivo; conditions: solo, 1 day preventive, 11 days after application
Source text: In the following Tables ‘Activity (%)’ means the assessed experimental activity (% disease control in this test when compared to untreated control leaf disks under the same conditions, which show extensive disease development) and “P” is the expected value calculated (expected) activity according to the COLBY formula (see above). The column headed ‘S?’ indicates whether or not synergy was observed, with ‘y’ meaning that synergy was observed.
Sclerotinia sclerotiorum on Oilseed Rape, Preventive Treatment
The compound activity was tested under 1 day preventive conditions. Oilseed rape plants with 3 unfolded leafs were sprayed with a track sprayer and 200 I/ha spray volume with the test compounds, either solo or in tankmix as shown in the table below.
1 day after application the plants were infested with a solution of Sclerotinia sclerotiorum mycelium. The plants were placed under plastic hoods and high humidity conditions in a climate chamber at 14 h day/10 h night cycle and 15° C. Disease infestation was evaluated visually 11 days after application and average activity calculated in relation to disease severity on untreated check.

Septoria tritici [5] = assay: Septoria tritici (leaf blotch), PDB microtiter plate, visual after 72 hrs; assay type: cell-based; conditions: Zymoseptoria tritici, single compound
[6] = system: Phakopsora pachyrhizi (triazole tolerant soybeanrust strain); assay: Phakopsora pachyrhizi on soybean, preventive treatment; assay type: in vivo; conditions: solo, soybean leaf discs, 1 day preventive, 11 days after application
[7] = system: Fusarium graminearum and Fusarium culmorum; assay type: in vivo; conditions: solo, 200 g a.i./ha; wheat, 1 day preventive, 9 days after application
[8] = system: Mycosphaerella arachidis (y. Cercospora arachidicola); assay: Mycosphaerella arachidis (brown leaf spot of groundnut), PDB microtiter plate, visual after 5-6 days; assay type: cell-based; conditions: single compound
[9] = system: Puccinia recondita f. sp. tritici; assay: Puccinia recondita f. sp. tritici / wheat / leaf disc preventative (brown rust); assay type: in vivo; conditions: foliar, compared to untreated control leaf disks, read-out: disease control
Source text: Puccinia recondita f. sp. tritici/Wheat/Leaf Disc Preventative (Brown Rust) Wheat leaf segments cv. Kanzler were placed on agar in multiwell plates (24-well format) and sprayed with the formulated test compound diluted in water. The leaf disks were inoculated with a spore suspension of the fungus 1 day after application.

[10] = system: Monographella nivalis (syn. Microdochium nivale, Fusarium nivale); assay: Monographella nivalis (snow mould, foot rot of cereals), PDB microtiter plate, visual after 72 hrs; assay type: cell-based; conditions: applied alone

CCN(C)/C=N/c1cc(Br)c(O[C@H]2CC[C@@H](C(C)C)CC2)nc1C [Q.135]
Activity (Sphaerotheca fuliginea; rate 0.2 ppm): 0% | Activity (Sphaerotheca fuliginea; rate 0.6 ppm): 0% | Activity (Sphaerotheca fuliginea; rate 2 ppm): 0% | pest or weed control at 200 ppm [1]: ≥ 50% | Activity (Septoria tritici [2]; 1 g a.i./ha): 0% | Activity (Septoria tritici [2]; 3 g a.i./ha): 0% and 9% | Activity (Septoria tritici [2]; 9 g a.i./ha): 33% and 43% | Activity (Septoria tritici [2]; 27 g a.i./ha): 52% and 82% | Activity (Septoria tritici [2]; 81 g a.i./ha): 70% | pest or weed control at 200 ppm [3]: ≥ 50% | inhibition of growth at 0.15625 ppm (Septoria tritici [4]; rate 0.15625 ppm, read-out: Activity): 29% | inhibition of growth at 0.3125 ppm (Septoria tritici [4]; rate 0.3125 ppm): 34% | inhibition of growth at 0.625 ppm (Septoria tritici [4]; rate 0.625 ppm): 32% | inhibition of growth at 1.25 ppm (Septoria tritici [4]; rate 1.25 ppm): 22% | Activity (Sclerotinia sclerotiorum; rate 25 ppm): 0% | Activity (Sclerotinia sclerotiorum; rate 50 ppm): 0% | Activity (Sclerotinia sclerotiorum; rate 100 ppm): 15% | inhibition at 0.00390625 ppm (Septoria tritici [5]; 0.00390625 ppm): 0% | inhibition at 0.0078125 ppm (Septoria tritici [5]; 0.0078125 ppm): 0% | inhibition at 0.015625 ppm (Septoria tritici [5]; 0.015625 ppm): 0% | inhibition at 0.03125 ppm (Septoria tritici [5]; 0.03125 ppm): 0% | inhibition at 0.0625 ppm (Septoria tritici [5]; 0.0625 ppm): 0% | inhibition at 0.125 ppm (Septoria tritici [5]; 0.125 ppm): 0% | inhibition at 0.25 ppm (Septoria tritici [5]; 0.25 ppm, read-out: Activity (%)): 0% | inhibition at 0.5 ppm (Septoria tritici [5]; 0.5 ppm): 0% | inhibition at 1 ppm (Septoria tritici [5]; 1 ppm): 0% | inhibition at 2 ppm (Septoria tritici [5]; 2 ppm): 0% | Activity ([6]; rate 0.5 g ai/ha): 13% | Activity ([6]; rate 2 g ai/ha): 41% | Activity [7]: 28% | inhibition at 0.00390625 ppm ([8]; Mycosphaerella arachidis, 0.00390625 ppm, read-out: Activity (%)): 0% | inhibition at 0.03125 ppm ([8]; Mycosphaerella arachidis, 0.03125 ppm, read-out: Activity (%)): 50% | inhibition at 0.0625 ppm ([8]; Mycosphaerella arachidis, 0.0625 ppm, read-out: Activity (%)): 50% | inhibition at 0.15625 ppm ([8]; Mycosphaerella arachidis, 0.15625 ppm): 0% | Activity (%) ([8]; 0.015625 ppm): 20% | Activity (%) ([8]; 0.03125 ppm): 70% | Activity (%) ([8]; 0.0625 ppm): 70% | pest or weed control at 200 ppm [9]: ≥ 50% | inhibition at 0.0078125 ppm ([10]; Monographella nivalis, rate 0.0078125 ppm): 0% | inhibition at 0.015625 ppm ([10]; Monographella nivalis, rate 0.015625 ppm): 0% | inhibition at 0.125 ppm ([10]; Monographella nivalis, rate 0.125 ppm): 70% | inhibition at 0.3125 ppm ([10]; Monographella nivalis, rate 0.3125 ppm): 0% | inhibition at 0.625 ppm ([10]; Monographella nivalis, rate 0.625 ppm): 50% | Activity (%) ([10]; rate 0.0625 ppm): 20%
